Here are results for ten molecules from ChEMBL document CHEMBL1147838, “Design, synthesis, and evaluation of phenanthridine derivatives targeting the telomerase RNA/DNA heteroduplex” (Bioorg Med Chem Lett, 2007).

A value given as a limit tells only on which side of the number the result lay.

The assay can be described thus: Inhibition of telomerase by fluorescence based assay. The arrangement: species or system Homo sapiens.
As usually defined, the IC50 is the concentration at which inhibition is half-maximal. Read a high IC50 as weaker potency. The molecule `CC[n+]1c(-c2ccccc2)c2cc(NC(=O)CCCC(N)=O)ccc2c2ccc(N)cc21` gave an IC50 of 68.2 µM.

Turning to `CC[n+]1c(-c2ccccc2)c2cc(NC(=O)CCCC(=O)O)ccc2c2ccc(NC(=O)CCCC(=O)O)cc21`, the IC50 is 63.1 µM.

`NC(=O)CCCCC[n+]1c(-c2ccccc2)c2cc(N)ccc2c2ccc(N)cc21` had a 50% inhibitory concentration (IC50) of 30.3 µM.

`CC[n+]1c(-c2ccccc2)c2cc(NC(=O)CCCC(N)=O)ccc2c2ccc(NC(=O)CCCC(N)=O)cc21` gave an IC50 greater than 80 µM.

As for `Nc1ccc2c(c1)c(-c1ccccc1)[n+](Cc1ccc(C(=O)O)cc1)c1cc(N)ccc21`, the IC50 amounted to 27.3 µM.

`NC(=O)c1ccc(C[n+]2c(-c3ccccc3)c3cc(N)ccc3c3ccc(N)cc32)cc1` returned an IC50 of 2.9 µM.

Turning to `CC[n+]1c(-c2ccccc2)c2cc(N)ccc2c2ccc(NC(=O)CCCC(=O)O)cc21`, the IC50 is greater than 80 µM.

`Nc1ccc2c(c1)c(-c1ccccc1)[n+](CCCCCC(=O)O)c1cc(N)ccc21` came in with an IC50 of 23.3 µM.

`CC[n+]1c(-c2ccccc2)c2cc(N)ccc2c2ccc(NC(=O)CCCC(N)=O)cc21` had an IC50 of 5.6 µM.

Molecule `CC[n+]1c(-c2ccccc2)c2cc(NC(=O)CCCC(=O)O)ccc2c2ccc(N)cc21` gave a half-inhibitory concentration (IC50) greater than 80 µM.
